According to ChEMBL document CHEMBL1152373, “Synthesis and antimultidrug resistance evaluation of icariin and its derivatives” (Bioorg Med Chem Lett, 2009):
Active and inactive are the calls of the source. The rule behind the calls is not given here.

How the values were obtained:
[1] = Cytotoxicity against human MCF7/ADR cells after 72 hrs by MTT assay; format: functional, cell-based; details: NCI/ADR-RES
NCI/ADR-RES [2] = experiment: Reversal of P-gp-mediated multidrug resistance in human MCF7/ADR cells assessed as enhancement in cytotoxicity of adriamycin; format: cell-based
NCI/ADR-RES [3] = experiment: Reversal of P-gp-mediated multidrug resistance in human MCF7/ADR cells assessed as assessed as increase in intracellular adriamycin accumulation at 5 uM incubated 2 hrs before adriamycin challenge by spectrophotometry; format: cell-based
MCF7 [4] = experiment: Reversal of P-gp-mediated multidrug resistance in human MCF7 cells assessed as assessed as increase in intracellular adriamycin accumulation at 5 uM incubated 2 hrs before adriamycin challenge by spectrophotometry; format: cell-based
NCI/ADR-RES [5] = experiment: Reversal of P-gp-mediated multidrug resistance in human MCF7/ADR cells assessed as modulation factor, ratio of adriamycin IC50 without drug to adriamycin IC50 with drug at 1 uM after 72 hrs by MTT assay; format: cell-based
NCI/ADR-RES [6] = experiment: Reversal of P-gp-mediated multidrug resistance in human MCF7/ADR cells assessed as modulation factor, ratio of adriamycin IC50 without drug to adriamycin IC50 with drug at 10 uM after 72 hrs by MTT assay; format: cell-based
MCF7 [7] = experiment: Ratio of IC50 for human MCF7/ADR cells to IC50 for human MCF7 cells; format: functional
NCI/ADR-RES [8] = experiment: Reversal of P-gp-mediated multidrug resistance in human MCF7/ADR cells assessed as modulation factor, ratio of adriamycin IC50 without drug to adriamycin IC50 with drug at 25 uM after 72 hrs by MTT assay; format: cell-based
NCI/ADR-RES [9] = experiment: Inhibition of MDR1 gene expression in human MCF7/ADR cells after 48 hrs by RT-PCR analysis; format: functional, cell-based
P-gp (ABCB1) [10] = biological target: T1, P-gp (ABCB1) (Homo sapiens, UniProt P08183); experiment: Inhibition of P-gp in human Caco-2 cells assessed as increase in influx permeability from apical to basolateral side at 50 uM after 120 mins; format: cell-based
P-gp (ABCB1) [11] = biological target: T1, P-gp (ABCB1); experiment: Inhibition of P-gp in human Caco-2 cells assessed as decrease in efflux permeability from basolateral to apical side at 50 uM after 120 mins; format: cell-based

T1 sequence (P08183 whole entry): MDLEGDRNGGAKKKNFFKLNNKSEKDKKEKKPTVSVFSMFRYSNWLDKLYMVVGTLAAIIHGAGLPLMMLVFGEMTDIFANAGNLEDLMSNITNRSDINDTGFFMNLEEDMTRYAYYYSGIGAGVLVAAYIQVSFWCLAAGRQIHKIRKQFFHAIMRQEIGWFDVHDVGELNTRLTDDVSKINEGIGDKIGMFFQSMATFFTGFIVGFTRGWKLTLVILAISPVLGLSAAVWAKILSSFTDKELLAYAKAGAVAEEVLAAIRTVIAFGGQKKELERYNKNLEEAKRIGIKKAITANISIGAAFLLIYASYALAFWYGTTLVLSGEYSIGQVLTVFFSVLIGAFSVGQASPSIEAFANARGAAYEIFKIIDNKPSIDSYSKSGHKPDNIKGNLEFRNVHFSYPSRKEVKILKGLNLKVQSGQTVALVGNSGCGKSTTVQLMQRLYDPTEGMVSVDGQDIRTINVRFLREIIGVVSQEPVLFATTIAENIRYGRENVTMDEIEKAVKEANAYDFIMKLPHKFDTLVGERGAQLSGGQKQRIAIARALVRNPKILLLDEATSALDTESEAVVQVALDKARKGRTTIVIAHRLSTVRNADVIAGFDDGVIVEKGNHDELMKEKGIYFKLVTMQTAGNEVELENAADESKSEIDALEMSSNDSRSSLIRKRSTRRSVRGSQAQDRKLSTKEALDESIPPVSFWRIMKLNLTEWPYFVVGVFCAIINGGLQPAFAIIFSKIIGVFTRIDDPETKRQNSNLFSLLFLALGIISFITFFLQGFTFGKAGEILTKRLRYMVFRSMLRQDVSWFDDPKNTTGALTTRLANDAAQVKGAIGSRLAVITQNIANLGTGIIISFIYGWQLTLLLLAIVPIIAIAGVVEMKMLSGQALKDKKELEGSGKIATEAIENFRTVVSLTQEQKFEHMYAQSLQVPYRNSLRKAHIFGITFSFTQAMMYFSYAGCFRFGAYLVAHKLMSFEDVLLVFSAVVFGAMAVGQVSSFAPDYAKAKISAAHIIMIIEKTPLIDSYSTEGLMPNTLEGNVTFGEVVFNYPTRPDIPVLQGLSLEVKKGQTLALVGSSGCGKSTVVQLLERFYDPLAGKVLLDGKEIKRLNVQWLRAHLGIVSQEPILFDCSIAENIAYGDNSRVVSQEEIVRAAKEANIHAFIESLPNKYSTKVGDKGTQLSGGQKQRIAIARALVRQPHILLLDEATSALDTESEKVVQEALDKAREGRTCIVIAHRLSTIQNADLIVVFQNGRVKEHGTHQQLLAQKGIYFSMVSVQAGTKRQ

| SMILES | IC50 [1] | Activity (NCI/ADR-RES [2]) | Activity (NCI/ADR-RES [3]) | Activity (MCF7 [4]) | Ratio IC50 (NCI/ADR-RES [5]) | Ratio IC50 (NCI/ADR-RES [6]) | Ratio IC50 (MCF7 [7]) | Ratio IC50 (NCI/ADR-RES [8]) | Activity (NCI/ADR-RES [9]) | fold change (FC) (NCI/ADR-RES [2]) | inhibition at 2 h, 50 µM (P-gp (ABCB1) [10]) | inhibition at 2 h, 50 µM (P-gp (ABCB1) [11]) |
| --- | --- | --- | --- | --- | --- | --- | --- | --- | --- | --- | --- | --- |
| COc1ccc(-c2oc3c(CCC(C)(C)OC)c(O)cc(O)c3c(=O)c2O)cc1 | 20.9 µM | Dose-dependent effect | Active | inactive | 1.26 | 2.41 |  |  |  |  |  |  |
| COc1cccc2c1C(=O)c1c(O)c3c(c(O)c1C2=O)C[C@@](O)(C(=O)CO)C[C@@H]3O[C@H]1C[C@H](N)[C@H](O)[C@H](C)O1 [DOXORUBICIN] | 25.3 µM |  |  |  |  |  | 47.7 |  |  |  |  |  |
| COc1ccc(-c2oc3c(CC=C(C)C)c(OS(C)(=O)=O)cc(O)c3c(=O)c2OS(C)(=O)=O)cc1 | 80.8 µM |  | Active | inactive | 1.11 | 1.36 |  | 1.46 |  |  |  |  |
| COc1ccc(-c2oc3c4c(cc(O)c3c(=O)c2OS(C)(=O)=O)OC(C)(C)CC4)cc1 | 55 µM |  | Active | inactive | 1.89 | 2.34 |  | 2.71 | Active |  |  |  |
| COc1ccc(-c2oc3c4c(cc(O)c3c(=O)c2O)OC(C)(C)CC4)cc1 | > 100 µM |  | Active | inactive | 2.33 | 4.35 |  | 10.1 | Active | 10 | 39.6% | 39.6% |
| COc1ccc(-c2oc3c(CC=C(C)C)c(O)cc(O)c3c(=O)c2O)cc1 [ICARITIN] | 52.1 µM |  | Active | inactive | 2.48 | 4.96 |  | 12.9 | Active | 10 | 41.9% | 41.9% |
| COc1ccc(-c2oc3c(CC=C(C)C)c(O)cc(O)c3c(=O)c2O[C@@H]2O[C@@H](C)[C@H](O)[C@@H](O)[C@H]2O)cc1 | > 100 µM |  | Active | inactive | 1.28 | 1.39 |  | 1.61 |  |  |  |  |
| COc1ccc(-c2oc3c(CC=C(C)C)c(O[C@@H]4O[C@H](CO)[C@@H](O)[C@H](O)[C@H]4O)cc(O)c3c(=O)c2O)cc1 | 60.8 µM |  | Active | inactive | 1.41 | 1.49 |  | 1.62 |  |  |  |  |
| COc1ccc(-c2oc3c(CC=C(C)C)c(O[C@@H]4O[C@H](CO)[C@@H](O)[C@H](O)[C@H]4O)cc(O)c3c(=O)c2O[C@@H]2O[C@@H](C)[C@H](O)[C@@H](O)[C@H]2O)cc1 [ICARIIN] | > 100 µM | Dose-dependent effect | Active | inactive | 1.41 | 1.59 |  | 2.03 |  |  |  |  |
| COc1ccc(-c2oc3c4c(cc(O)c3c(=O)c2OS(N)(=O)=O)OC(C)(C)CC4)cc1 | 92.1 µM |  | Active | inactive | 1.42 | 1.69 |  | 3.65 | Active |  |  |  |
| COc1ccc(-c2oc3c4c(cc(O)c3c(=O)c2O)OC(C)(C)CC4)cc1S(=O)(=O)O | > 100 µM |  | Active | inactive | 1.33 | 2.15 |  | 2.56 | Active |  |  |  |
